Patent publication US9387204B2, “Fused bicyclic imidazoles” (BAYER INTELLECTUAL PROPERTY GmbH, priority 2007, dated 2016)
Like-named read-outs stand apart in the source and are kept apart here.

Assays:
OvCAR3 cells = assay: Cellular proliferation/cytotoxicity assay (Alamar Blue), OvCAR3 cells; assay type: cell-based; settings: Homo sapiens, OVCAR-3, 72 h, Alamar Blue (Resazurin), read-out: Anti-proliferative/Cytotoxic activity (OvCAR3 cells)
Excerpt: Viabilities are expressed as % values.

A549 cells = assay: Cellular proliferation/cytotoxicity assay (Alamar Blue), A549 cells; settings: read-out: Anti-proliferative/Cytotoxic activity (A549 cells)
phospho-Akt (Ser473) = assay: Cellular PI3K/Akt pathway assay (phospho-Akt ELISA); assay type: cell-based; settings: MCF7 cells, β-Heregulin stimulated, 48 h, phospho-Akt1 (Ser473) ELISA
Description: In order to study the cellular activity of the compounds according to the present invention, an Enzyme Linked Immunosorbent Assay (ELISA)-based assay has been used specific phospho-AKT. The assay is based on a Sandwich ELISA kit (PathScan™ Phospho-Akt1 (Ser473); Cell Signaling, USA; #7160).
The ELISA Kit detects endogenous levels of phosphorylated Akt protein. A phospho-Akt (Ser473) antibody (Cell Signaling, USA; #9271) has been coated onto the microwells. After incubation with cell lysates, the coated antibody captures the phosphorylated Akt protein. Following extensive washing, Akt1 monoclonal antibody (Cell Signaling, USA; #2967) is added to detect the captured phospho-Akt1 protein. HRP-linked anti-mouse antibody (HRP: horseradish peroxidase; Cell Signaling, USA; #7076) is then used to recognize the bound detection antibody. HRP substrate (=3,3′,5,5′-tetramethylbenzidine (TMB); Cell Signaling, USA; #7160) is added to develop colour. The magnitude of optical density for this developed color is proportional to the quantity of phosphorylated Akt protein. MCF7 cells (ATCC HTB-22) are seeded into 96 well fate bottom plates at a density of 10000 cells/well. 24 hours after seeding, the cells are serum starved using low-serum medium (IMEM media including 0.1% charcoal treated FCS (FCS: fetal calf serum)). […] To stimulate Akt phosphorylation, β-Heregulin (20 ng/ml β-HRG) is added in parallel to the compounds. Wells containing unstimulated control cells (no β-Heregulin stimulation) are incubated with or without the diluted compound. Wells containing untreated control cells (no compound) are filled with medium containing 0.5% v:v DMSO and are or are not stimulated with β-Heregulin.
Cells are harvested and lysed with brief sonification in 1× cell lysis buffer (20 mM Tris (pH7.5), 150 mM NaCl, 1 mM ethylene diaminetetraacetate (EDTA), 1 mM ethylene glycolbis(2-aminoethyl)-N,N,N′,N′-tetraacetic acid (EGTA), 1 vol % Triton X-100, 2.5 mM sodium pyrophosphate, 1 mM β-glycerolphosphate, 1 mM Na3VO4, 1 μg/ml leupeptin). The lysate is centrifuged for 10 min. at 4° C. and the supernatant is transferred to a new tube. 100 μl of sample diluent (0.1 vol % Tween-20, 0.1 vol % sodium azide in phosphate buffered saline (PBS)) are added to a microcentrifuge tube and 100 μl of cell lysate are transferred into the tube and vortexed. 100 μl of each diluted cell lysate are added to the appropriate ELISA well, and incubated overnight at 4° C. The plates are washed 4 times with 1× wash buffer (1 vol % tween-20, 0.33 vol % thymol, in PBS). Next 100 μl of detection antibody (Akt1 (2H10) monoclonal detection antibody; Cell Signaling, USA; #2967) are added to each well and incubation continued for 1 h at 37° C. The washing procedure is repeated between each step. 100 μl of secondary antibody (anti-mouse IgG HRP-linked antibody; Cell Signaling, USA; #7076) are added to each well and incubated for 30 min. at 37° C. Than, 100 μl of TMB substrate (0.05% 3,3′,5,5′ tetramethylbenzidine, 0.1% hydrogen peroxide, complex polypeptides in a buffered solution; Cell Signaling, USA; #7160) are added to each well and incubated for 30 min. at 25° C. Finally 100 μl of STOP solution (0.05 vol % α and β unsaturated carbonyl compound) are added to each well and the plate are shaked gently. The absorbance is measured at ? 450 nm (Wallac Victor2; Perkin Elmer, USA) within 30 min. after adding the STOP solution. The analysis of the data is performed using a statistical program (Excel; Microsoft, USA). Preferred compounds show an inhibitory activity towards Akt phosphorylation below 10 μM.

[1] = A549 cells, 72 h, Alamar Blue (Resazurin)

Row | SMILES | IC50 (A549 cells; Homo sapiens, A549, 72 h) | IC50 (phospho-Akt (Ser473); Homo sapiens) | IC50 (A549 cells; [1]) | further results
1 | NC(=O)c1cccn2c(-c3ccccc3)c(-c3ccc(CN4CCC(c5n[nH]c(-c6ccccn6)n5)CC4)cc3)nc12 [Example 40, 3-phenyl-2-(4-{[4-(5-pyridin-2-yl-1,2,4-triazol-3-yl)piperidin-1-yl]methyl}phenyl)imidazo[1,2-a]pyridine-8-carboxamide] | > 10 µM |  |  | IC50 (OvCAR3 cells): < 10 µM
2 | N#Cc1cccn2c(-c3ccccc3)c(-c3ccc(CN4CCC(c5n[nH]c(-c6ccccn6)n5)CC4)cc3)nc12 [Example 5, 3-phenyl-2-(4-{[4-(5-pyridin-2-yl-1,2,4-triazol-3-yl)piperidin-1-yl]methyl}phenyl)imidazo[1,2-a]pyridine-8-carbonitrile] | < 10 µM |  |  | IC50 (OvCAR3 cells): < 10 µM
3 | c1ccc(-c2nnc(C3CCN(Cc4ccc(-c5nc6sccn6c5-c5ncco5)cc4)CC3)[nH]2)nc1 [Example 43, 5-(1,3-oxazol-2-yl)-6-(4-{[4-(5-pyridin-2-yl-4H-1,2,4-triazol-3-yl)piperidin-1-yl]methyl}phenyl)imidazo[2,1-b][1,3]thiazole] |  | 1 to 10 µM |  | 
4 | Clc1ccc2nc(-c3ccc(CN4CCC(c5n[nH]c(-c6ccccn6)n5)CC4)cc3)c(-c3ccccc3)n2n1 [Example 31, 6-chloro-3-phenyl-2-(4-{[4-(5-pyridin-2-yl-1,2,4-triazol-3-yl)piperidin-1-yl]methyl}phenyl)imidazo[1,2-b]pyridazine] | > 10 µM |  |  | IC50 (OvCAR3 cells): < 10 µM
5 | c1ccc(-c2c(-c3ccc(CN4CCC(c5nnc(-c6ccc[nH]6)[nH]5)CC4)cc3)nc3ncccn23)cc1 [Example 106, ′3-phenyl-2-[4-({4-[5-(1H-pyrrol-2-yl)-4H-1,2,4-triazol-3-yl]piperidin-1-yl}methyl)phenyl]imidazo[1,2-a]pyrimidine] |  |  | > 10 µM | IC50 (phospho-Akt (Ser473)): < 1 µM
6 | N#Cc1cccn2c(-c3ccccc3)c(-c3ccc(CN4CCC(c5nnc(-c6ncccn6)[nH]5)CC4)cc3)nc12 [Example 77, 3-phenyl-2-[4-({4-[5-(pyrimidin-2-yl)-4H-1,2,4-triazol-3-yl]piperidin-1-yl}methyl)phenyl]imidazo[1,2-a]pyridine-8-carbonitrile] | > 10 µM | < 1 µM |  | 
7 | N#Cc1cccn2c(-c3ccccc3)c(-c3ccc(CN4CCC(c5nnc(-c6ccccc6)[nH]5)CC4)cc3)nc12 [Example 117, 3-phenyl-2-(4-{[4-(5-phenyl-4H-1,2,4-triazol-3-yl)piperidin-1-yl]methyl}phenyl)imidazo[1,2-a]pyridine-8-carbonitrile] | > 10 µM | < 1 µM |  | 
8 | Cc1cccc(-c2nnc(C3CCN(Cc4ccc(-c5nc6cc(C#N)ccn6c5-c5ccccc5)cc4)CC3)[nH]2)n1 [Example 61, 2-[4-({4-[5-(6-methylpyridin-2-yl)-4H-1,2,4-triazol-3-yl]piperidin-1-yl}methyl)phenyl]-3-phenylimidazo[1,2-a]pyridine-7-carbonitrile] | > 10 µM | < 1 µM |  | 
9 | Cc1cccc(-c2nnc(C3CCN(Cc4ccc(-c5nc6c(C#N)cccn6c5-c5ccccc5)cc4)CC3)[nH]2)n1 [Example 62, 2-[4-({4-[5-(6-methylpyridin-2-yl)-4H-1,2,4-triazol-3-yl]piperidin-1-yl}methyl)phenyl]-3-phenylimidazo[1,2-a]pyridine-8-carbonitrile] | > 10 µM | < 1 µM |  | 
10 | COC(=O)c1ccn2c(-c3ccccc3)c(-c3ccc(CN4CCC(c5nnc(-c6ccccn6)[nH]5)CC4)cc3)nc2c1 [Example 124, methyl 3-phenyl-2-[4-({4-[5-(pyridin-2-yl)-4H-1,2,4-triazol-3-yl]piperidin-1-yl}methyl)phenyl]imidazo[1,2-a]pyridine-7-carboxylate] | > 10 µM | < 1 µM |  | 
11 | c1ccc(-c2c(-c3ccc(CN4CCC(c5nnc(-c6ccco6)[nH]5)CC4)cc3)nc3sccn23)cc1 [Example 93, ′6-[4-({4-[5-(2-furyl)-4H-1,2,4-triazol-3-yl]piperidin-1-yl}methyl)phenyl]-5-phenylimidazo[2,1-b][1,3]thiazole] |  |  | < 10 µM | IC50 (phospho-Akt (Ser473)): < 1 µM
12 | Cc1cccc(-c2nnc(C3CCN(Cc4ccc(-c5nc6sccn6c5-c5ccccc5)cc4)CC3)[nH]2)n1 [Example 66, ′6-[4-({4-[5-(6-methylpyridin-2-yl)-4H-1,2,4-triazol-3-yl]piperidin-1-yl}methyl)phenyl]-5-phenylimidazo[2,1-b][1,3]thiazole] |  |  | < 10 µM | IC50 (phospho-Akt (Ser473)): < 1 µM
13 | COc1nccn2c(-c3ccccc3)c(-c3ccc(CN4CCC(c5nnc(-c6cccc(C)n6)[nH]5)CC4)cc3)nc12 [Example 65, ′8-methoxy-2-[4-({4-[5-(6-methylpyridin-2-yl)-4H-1,2,4-triazol-3-yl]piperidin-1-yl}methyl)phenyl]-3-phenylimidazo[1,2-a]pyrazine] |  |  | < 10 µM | IC50 (phospho-Akt (Ser473)): < 1 µM
14 | c1ccc(-c2c(-c3ccc(CN4CCC(c5nnc(-c6ccncc6)[nH]5)CC4)cc3)nc3ccccn23)cc1 [Example 58, ′3-phenyl-2-(4-{[4-(5-pyridin-4-yl-4H-1,2,4-triazol-3-yl)piperidin-1-yl]methyl}phenyl)imidazo[1,2-a]pyridine] |  |  | < 10 µM | 
15 | N#Cc1ccn2c(-c3ccccc3)c(-c3ccc(CN4CCC(c5nnc(-c6ccccc6)[nH]5)CC4)cc3)nc2c1 [Example 118, 3-phenyl-2-(4-{[4-(5-phenyl-4H-1,2,4-triazol-3-yl)piperidin-1-yl]methyl}phenyl)imidazo[1,2-a]pyridine-7-carbonitrile] | < 10 µM |  |  | 
16 | c1ccc(-c2nnc(C3CCN(Cc4ccc(-c5nc6scnn6c5-c5ccccc5)cc4)CC3)[nH]2)cc1 [Example 123, 5-phenyl-6-(4-{[4-(5-phenyl-4H-1,2,4-triazol-3-yl)piperidin-1-yl]methyl}phenyl)imidazo[2,1-b][1,3,4]thiadiazole] | < 10 µM |  |  | 
17 | c1ccc(-c2c(-c3ccc(CN4CCC(c5n[nH]c(-c6ccncc6)n5)CC4)cc3)nc3ncccn23)cc1 [Example 55, ′3-phenyl-2-(4-{[4-(5-pyridin-4-yl-1H-1,2,4-triazol-3-yl)piperidin-1-yl]methyl}phenyl)imidazo[1,2-a]pyrimidine] |  |  | > 10 µM | 
18 | Cc1ccc2nc(-c3ccc(CN4CCC(c5nnc(-c6ncccn6)[nH]5)CC4)cc3)c(-c3ccccc3)n2n1 [Example 83, ′6-methyl-3-phenyl-2-(4-{[4-(5-pyrimidin-2-yl-4H-1,2,4-triazol-3-yl)piperidin-1-yl]methyl}phenyl)imidazo[1,2-b]pyridazine] |  |  | > 10 µM | 
19 | Brc1ccc2nc(-c3ccc(CN4CCC(c5n[nH]c(-c6ccccn6)n5)CC4)cc3)c(-c3ccccc3)n2c1 [Example 6, 6-bromo-3-phenyl-2-(4-{[4-(5-pyridin-2-yl-1,2,4-triazol-3-yl)piperidin-1-yl]methyl}phenyl)imidazo[1,2-a]pyridine] | < 10 µM |  |  | 
20 | O=C(O)c1cn2c(-c3ccccc3)c(-c3ccc(CN4CCC(c5nnc(-c6ccccn6)[nH]5)CC4)cc3)nc2s1 [Example 127, ′5-phenyl-6-(4-{[4-(5-pyridin-2-yl-4H-1,2,4-triazol-3-yl)piperidin-1-yl]methyl}phenyl)imidazo[2,1-b][1,3]thiazole-2-carboxylic acid] |  |  | > 10 µM | 
